Experimental data from paper PMC10808130, “Mobilization of cholesterol induces the transition from quiescence to growth in Caenorhabditis elegans through steroid hormone and mTOR signaling” (Communications Biology, 2024).

Experiments:
SCL-12 [1] = biological target: T1, SCL-12 (Caenorhabditis elegans, UniProt Q9N5N3); experiment: competition with TopFluor cholesterol fluorescence, protein captured on Q-Sepharose beads; format: binding; set-up: C-terminal polyhistidine tag; expressed in Sf9 insect cells (baculovirus); conditions: 20 mM Tris pH 7.5, 30 mM NaCl, 0.05% Triton X-100, room temperature; pre-incubated with 50 or 100 nM cholesterol; competitive
T1 sequence (Q9N5N3 17-208): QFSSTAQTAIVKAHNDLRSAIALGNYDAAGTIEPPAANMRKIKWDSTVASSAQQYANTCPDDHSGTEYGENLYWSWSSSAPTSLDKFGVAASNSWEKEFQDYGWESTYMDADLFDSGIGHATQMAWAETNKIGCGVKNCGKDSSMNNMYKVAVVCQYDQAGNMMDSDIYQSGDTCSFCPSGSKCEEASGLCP

SCL-12 [2] = biological target: T1, SCL-12; conditions: 20 mM Tris pH 7.5, 30 mM NaCl, 0.05% Triton X-100, room temperature; 0-100 nM ligand; labelled compound

Structure (SMILES): CC(C)CCC[C@@H](C)[C@H]1CC[C@H]2[C@@H]3CC=C4C[C@@H](O)CC[C@]4(C)[C@H]3CC[C@]12C [cholesterol]
- competition with TopFluor cholesterol fluorescence, protein captured on Q-Sephar (SCL-12 [1]): SCL-12 was pre-incubated with unmodified cholesterol, which decreased the binding of TopFluor cholesterol significantly

Structure (SMILES): CC1=CC(C)=[N+]2C1=C(CC[C@@H](C)[C@H]1CC[C@H]3[C@@H]4CC=C5C[C@@H](O)CC[C@]5(C)[C@H]4CC[C@]13C)c1c(C)cc(C)n1[B-]2(F)F [TopFluor cholesterol]
- direct fluorescence binding, protein captured on Q-Sepharose beads (SCL-12 [2]): Binding of TopFluor cholesterol to SCL-12 is concentration-dependent
